According to patent publication US10709688B2, “Agent for treating synucleinopathy” (TOHOKU UNIVERSITY, priority 2016, dated 2020):

Columns and labels:
GST-FABP3 = GST-FABP3 (Mus musculus (Mouse), UniProt P11404); experiment: Test Example 13: affinity of FABP ligand using ANS, GST-FABP3; format: binding; settings: ANS fluorescence; average of three measurements±SE; read-out: Kd value of FABP against the ligands, GST-FABP3
Experimental: Pt: FABP protein concentration (=400 nM);

[1] = tested on: TH and α-synuclein double positive cells of substantia nigra, MPTP model mice; experiment: Test Example 12: suppression of α-synuclein aggregation in MPTP Parkinson's disease model mice; format: in vivo, mouse; settings: p.o. once every day (Example 1: 0.1, 0.3 or 1.0 mg/kg; others 1.0 mg/kg), four weeks after MPTP, FIG. 12
Experimental: MPTP (25 mg/kg, i.p.) was administered once every day for 5 consecutive days to a 10 week old male C57BL6 N mice to prepare a Parkinson's disease model mice. […] Four weeks after MPTP administration, at which time a loss in the dopamine neuron and formation of α-synuclein multimers are observed, a mouse was fixed under perfusion to prepare a brain slice 50 μm thick that includes a substantia nigra region. The brain slice was reacted with an anti-TH antibody (mouse monoclonal antibody 22941 produced by Immunostar, 1:1000) and an anti-α-synuclein antibody (rabbit polyclonal antibody SC-7011-R produced by Santa Cruz, 1:200) and detected by a fluorescence-labeled, secondary antibody (Alexa 488 anti-rabbit IgG (produced by Jackson ImmunoResearch, 1:500)) to evaluate the number of positive cells.

[2] = tested on: MPTP Parkinson's disease model mice; experiment: Test Example 8: motor function in MPTP Parkinson's disease model animal; format: in vivo, mouse; settings: 1.0 mg/kg p.o. daily 2 weeks, three weeks after MPTP, FIG. 8
Experimental: From 24 hours after the final administration of MPTP, the solvent or FABP3 ligand (compound of Example 3) (1.0 mg/kg, p.o., each group n=7) was administered once every day for 2 weeks. Three weeks after administration of MPTP, at which time motor dysfunction was observed, the motor function was evaluated by a rotarod test and beam walking test. […] It was confirmed in both tests that the ligand administered group was fully recovered from the motor dysfunction that developed after MPTP administration.

[3] = tested on: MPTP Parkinson's disease model C57BL6 N mice; experiment: Test Example 9: motor function in MPTP Parkinson's disease model mice; format: in vivo, mouse; settings: p.o. once every day (Example 1: 0.1, 0.5 or 1.0 mg/kg; others 1.0 mg/kg), three weeks after MPTP, FIG. 9
Experimental: MPTP (25 mg/kg, i.p.) was administered once every day for 5 consecutive days to a 10 week old male C57BL6 N mice to prepare a Parkinson's disease model mice. […] Three weeks after administration of MPTP, at which time motor dysfunction was observed, the motor function was evaluated by a rotarod test and beam walking test.

[4] = tested on: MPTP Parkinson's disease model C57BL6 N mice; experiment: Test Example 7: cognitive function in MPTP Parkinson's disease model animal; format: in vivo, mouse; settings: 1.0 mg/kg p.o. daily 2 weeks, four weeks after MPTP, FIG. 7
Experimental: 1-Methyl-4-phenyl-1,2,3,6-tetrahydropyridine (MPTP, 25 mg/kg, i.p., purchased from Sigma-Aldrich (St Louis, Mo.)), which is a dopamine neurotoxin, was administered once every day for 5 consecutive days to a 10 week old male C57BL6 N mice, to prepare a Parkinson's disease model animal. From 24 hours after the final administration of MPTP, the solvent or FABP3 ligand (compound of Example 3, 1.0 mg/kg, p.o., each group n=7) was administered once every day for 2 weeks. Four weeks after administration of MPTP, at which time cognitive dysfunction was observed, the cognitive function was evaluated by a novel object recognition test.

GST-FABP4 = GST-FABP4 (Mus musculus (Mouse), UniProt P04117); experiment: Test Example 13: affinity of FABP ligand using ANS, GST-FABP4; settings: read-out: Kd value of FABP against the ligands, GST-FABP4; ANS fluorescence; average of three measurements±SE
Experimental: After GST-FABP3 and GST-FABP4 were respectively expressed in the Escherichia coli [BL21 (DE3) strain], affinity purification was performed using a glutathione column.
Purification of the GST binding protein was performed using a GST purification kit (Takara Bio USA). After the Escherichia coli was recovered by centrifuging, the accessory extraction buffer and aluminum oxide powder were added and the mixture was ground in the mortar. The centrifuged supernatant was added to the accessory glutathione column and left stationary on ice for 30 min. Then, the supernatant in the column was thrown away, and the remaining matter was washed with the extraction buffer, and subsequently subjected to elution using an elution buffer including glutathione. The protein concentration of the elution product was calculated from the absorbance at 280 nm, and used as an ANS assay.
The fluorescence intensity at the respective ligand concentrations was converted to a relative value (%) against the ANS fluorescence intensity under the absence of ligand, then the dissociation constant Kd(nM) was calculated by a nonrecurring analysis using the following equation.
F: Relative fluorescence intensity at a certain condition (%);
Ka: Reciprocal of dissociation constant Kd (nM^−1);
Fmax*: Relative fluorescence intensity when FABP is fully occupied by ligands.

[5] = tested on: dopamine neurons (TH positive cells) of substantia nigra, MPTP model mice; experiment: Test Example 11: dopamine neuroprotection in MPTP Parkinson's disease model mice; format: in vivo, mouse; settings: p.o. once every day (Example 1: 0.1, 0.3 or 1.0 mg/kg; others 1.0 mg/kg), four weeks after MPTP, FIG. 11
Experimental: MPTP (25 mg/kg, i.p.) was administered once every day for 5 consecutive days to a 10 week old male C57BL6 N mice to prepare a Parkinson's disease model mice. […] Four weeks after MPTP administration, at which time a loss in the dopamine neuron and formation of α-synuclein multimers are observed, the mouse was fixed under perfusion to prepare a brain slice 50 μm thick that includes a substantia nigra region.

FABP3 = FABP3 (Homo sapiens (Human), UniProt P05413); experiment: Evaluation of FABP3 ligand activity, fluorescent displacement assay using 1,8-ANS; format: binding; settings: 1,8-ANS displacement; average of two measurements
Experimental: Adopted for evaluation in the evaluation of FABP3 ligand activity was a fluorescent displacement assay using 1,8-ANS (1-anilino-8-naphthalenesulfonic acid). Fluorescent materials such as 1,8-ANS are characterized by an increase in the fluorescent intensity under a hydrophobic environment. […] Ethanol was used as the dilution solvent of the compounds.
To each well was added as a detection reagent, a 1,8-ANS (ALDRICH) solution (10 μM, ethanol/sodium phosphate buffer solution=1:4 v/v, 25 μL), and ethanol solutions of compounds diluted to different concentrations were added in an amount of 10 μL each (the final ethanol concentration was 15%). The plate was shaken for 10 sec. in the plate reader and incubated for 10 min. at room temperature. […] Used for measurement was ARVO™ X One by PerkinElmer Japan.
(§1) Measurement was performed twice each, and the average was adopted as the result. The software, Origin, available from Light Stone was used for calculating IC50.

[6] = tested on: MPTP Parkinson's disease model C57BL6 N mice; experiment: Test Example 10: cognitive function in MPTP Parkinson's disease model mice; format: in vivo, mouse; settings: p.o. once every day (Example 1: 0.1, 0.5 or 1.0 mg/kg; others 1.0 mg/kg), four weeks after MPTP, FIG. 10
Experimental: MPTP (25 mg/kg, i.p.) was administered once every day for 5 consecutive days to a 10 week old male C57BL6 N mice to prepare a Parkinson's disease model mice. […] Four weeks after administration of MPTP, at which time cognitive dysfunction was observed, the cognitive function was evaluated by a novel object recognition test and a passive avoidance test. The passive avoidance test was performed by putting a mouse in a light room and applying electric shock (0.3 mA, 2 second) on the mouse when it entered the dark room in the train run. Twenty four hours later, the mouse was put in the light room again, and the time until the mouse entered the dark room was measured.

FABP4 = FABP4 (Homo sapiens (Human), UniProt P15090); experiment: Evaluation of FABP4 ligand activity, fluorescent displacement assay using 1,8-ANS (Cayman assay kit); format: binding; settings: 1,8-ANS displacement; average of two measurements
Experimental: An evaluation of FABP4 was performed using a fluorescent displacement assay using 1,8-ANS, similar to FABP3. Used in the evaluation of FABP4 was an assay kit (FABP4 Inhibitor/Ligand Screening Assay Kit) available from Cayman Chemical Company. Ethanol was used as a solvent for dissolving the compound, and an arachidonic acid which comes with the kit was used as a positive control. The measurement procedure was performed similarly to the aforementioned FABP3 assay.
as §1

Chain of GST-FABP3 (P11404 whole entry): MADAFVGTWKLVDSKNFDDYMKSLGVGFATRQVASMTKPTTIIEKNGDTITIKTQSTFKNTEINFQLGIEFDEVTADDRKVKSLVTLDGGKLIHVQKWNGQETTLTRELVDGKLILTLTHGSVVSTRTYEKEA
Chain of FABP3 (P05413 whole entry, species assumed): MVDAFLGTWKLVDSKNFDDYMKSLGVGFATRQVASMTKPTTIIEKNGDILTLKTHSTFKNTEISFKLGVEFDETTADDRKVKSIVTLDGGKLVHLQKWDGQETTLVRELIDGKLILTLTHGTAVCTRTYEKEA
Chain of GST-FABP4 (P04117 whole entry): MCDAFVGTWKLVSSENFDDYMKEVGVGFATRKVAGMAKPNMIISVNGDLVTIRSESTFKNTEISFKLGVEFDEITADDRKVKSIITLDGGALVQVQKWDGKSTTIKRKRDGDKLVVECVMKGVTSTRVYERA
Chain of FABP4 (P15090 whole entry): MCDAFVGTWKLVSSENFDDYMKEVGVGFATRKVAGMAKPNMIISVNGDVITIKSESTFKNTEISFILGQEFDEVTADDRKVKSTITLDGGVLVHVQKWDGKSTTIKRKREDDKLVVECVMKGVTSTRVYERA

Kd (GST-FABP3): 2.22 ± 0.104 µM
Kd (GST-FABP4): 6.67 ± 1.4 µM
IC50 (FABP3): 0.28 µM
IC50 (FABP4): 1.66 µM
Compound: O=C(O)CCCOc1ccccc1-c1cc(-c2ccccc2)n(-c2ccc(Cl)c(Cl)c2)n1 [Example 3, 4-(2-(1-(3,4-Dichlorophenyl)-5-phenyl-1H-pyrazol-3-yl)phenoxy)butanoic acid]
number of TH and α-synuclein double positive cells [1]: tendency towards improvement
beam walking test, number of footslips [2]: entirely recovered
rotarod test, Latency [2]: recovered fully
beam walking test, number of footslips [3]: improved significantly
rotarod test, Latency [3]: improved significantly
novel object recognition test, cognitive dysfunction [4]: such dysfunction was not observed
number of TH positive cells (dopamine neurons) [5]: improved significantly
cognitive function by novel object recognition test and passive avoidance test [6]: significant effects
